Reference: patent publication US10544113B2 (priority 2016, dated 2020)
Like-named read-outs stand apart in the source and are kept apart here.

Molecular target: mu-opioid receptor (MOR) (Homo sapiens (Human), UniProt P35372)
Experiment: cell-based
Settings: combined with a MOR antagonist; for AUC: AUC of [Ca2+]i fluorescence
Description: In an exemplary in vitro screening method for identifying antagonist-to-agonist allosteric modifiers of a MOR, cells that express a MOR are treated with a test compound and a MOR antagonist in a cellular calcium fluorescent assay and fluorescence intensity is then measured to determine whether the MOR is activated. A test compound is identified as an antagonist-to-agonist allosteric modifier of the MOR if the MOR is activated.
EC50 herein refers to the concentration of a compound that induces a response halfway between the baseline and the maximum after a specified exposure time. AUC refers to the area under the response curve, an indication of the compound's capability of activating a MOR when combined with a MOR antagonist.
Human embryonic kidney 293 (HEK-293) cells constitutively expressing MOR (HEK-MOR) and DOR (HEK-DOR) (kindly provided by Dr. Ping-Yee Law, University of Minnesota, USA) were cultured in high-glucose Dulbecco's modified Eagle's medium (DMEM, GIBCO) supplemented with 400 μg/mL G418 (Sigma), 2 mM L-glutamine and P/S/F (100 units/mL penicillin, 100 μg/mL streptomycin, 10% fetal bovine serum). Chinese hamster ovary (CHO)-K1 cells, stably expressing hMOR and Gα15 (CHO-K1/MOR/Gα15), were cultured in F12 medium (GIBCO) supplemented with 10 μg/mL Hygromycin B (Invivogen), 20 μg/mL Zeocin (Invivogen) P/S/F (100 units/mL penicillin, 100 μg/mL streptomycin, 10% fetal bovine serum). The cultures were incubated at 37° C. in a humidified 5% CO2 incubator.
One day before the assay, CORNING® black with clear flat bottom 96-well assay plates were coated with a 0.1 mg/mL Poly-L-Lysine solution. CHO-K1/MOR/Gα15 cells were suspended in the F12 medium and plated at a density of ˜8×10^4 cells/well in 200 μL medium. Cells were incubated in a humidified atmosphere of 10% CO2 at 37° C. overnight so as to reach an 80-90% confluent cell monolayer before assay. At the day of assay, 150 μL medium/well was removed from plate. To each well, 50 μL FLIPR® calcium assay reagent dissolved in 1× assay buffer (HBSS: KCl 5 mM, KH2PO4 0.3 mM, NaCl 138 mM, NaHCO3 4 mM, Na2HPO4 0.3 mM, d-glucose 5.6 mM, with additional 20 mM HEPES and 13 mM CaCl2, pH 7.4), with 2.5 mM probenecid was added and the plate was incubated at 37° C. for 1 h. Compounds and other reagents were dissolved in the assay buffer. Using a FlexStationIII (Molecular Devices Corp.), the [Ca^2+]i fluorescence increases after robotic injections of compounds or other reagents were monitored every 1.52 s interval with excitation wavelength at 485 nm and with emission wavelength at 525 nm. The [Ca^2+]i fluorescence was measured up to 90 s after agonist injection.
A CHO-K1 cell line, expressing a MOR and Gα15 (GenScript), was used to set up a sensitive high-throughput screen (HTS) system. In a FLIPR® calcium assay using CHO-K1/MOR/Gα15 cells, activation of MOR elicits an intracellular calcium release leading to an increase in the relative fluorescence units (FRU). […] The HTS was performed in the absence or presence of an opioid antagonist, naloxone (25 nM), to identify antagonist to agonist allosteric modifiers (AAM).
A CHO-K1 cell line, expressing a MOR and Gα15 (GenScript), was used to set up a sensitive assay system for detecting μ-opioid receptor activation. […] The assay was performed in the presence of an opioid antagonist, i.e., naloxone (25 nM), naltrexone (20 nM), samidorphan (10 nM), naloxonazine dihydrochloride (20 nM), β-funaltrexamine hydrochloride (20 nM), cyprodime hydrochloride (500 nM), or nalmefene (20 nM), in combination with compound 58, an antagonist to agonist allosteric modifier (AAM), to identify activation of the μ-opioid receptor.

[1] = CHO-K1/MOR/Gα15 cells, read-out: EC50

mu-opioid receptor (MOR), sequence (P35372 whole entry): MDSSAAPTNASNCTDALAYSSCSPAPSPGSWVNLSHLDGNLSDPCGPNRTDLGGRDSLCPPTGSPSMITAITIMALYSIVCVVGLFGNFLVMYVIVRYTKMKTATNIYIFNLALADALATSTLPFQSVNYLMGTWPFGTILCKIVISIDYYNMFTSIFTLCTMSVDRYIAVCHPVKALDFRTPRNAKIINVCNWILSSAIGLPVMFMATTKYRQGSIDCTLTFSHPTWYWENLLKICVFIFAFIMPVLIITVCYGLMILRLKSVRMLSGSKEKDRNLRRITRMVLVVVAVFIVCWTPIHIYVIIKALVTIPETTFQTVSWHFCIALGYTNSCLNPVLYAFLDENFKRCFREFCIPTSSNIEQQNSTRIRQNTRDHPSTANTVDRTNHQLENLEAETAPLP

Molecule | AUC (CHO-K1/MOR/Gα15 cells) | EC50 (EC50, CHO-K1/MOR/Gα15 cells) [µM] | FLIPR Ca^2+ AUC | EC50 (read-out: FLIPR Ca^2+ EC50) [µM] | EC50 [1] [µM]
Cc1cc(C(=O)NS(=O)(=O)c2ccc(Cl)cc2F)ccc1N1C(=O)CSC1c1ccc(F)cc1 (centres unmarked) | more than 5000 | < 10 | 15287 | 0.1 | –
CONC(=O)c1ccc(N2C(=O)CSC2c2ccc(F)cc2)c(C)c1 (centres unmarked) | – | – | 14236 | 4.2 | –
4-[2-(4-Fluorophenyl)-4-oxo-1,3-thiazolidin-3-yl]-N-methoxy-3-methylbenzamide [Example 154] | more than 5000 | – | 15447 | 3.7 | < 10
COc1ccc(N2C(=O)CSC2c2ccc(F)cc2)c(OC)c1 (centres unmarked) [Example 8, 3-(2,4-Dimethoxyphenyl)-2-(4-fluorophenyl)thiazolidin-4-one] | – | < 10 | – | – | –
COc1cc(F)c(F)cc1N1C(=O)CSC1c1ccc(F)cc1 (centres unmarked) [Example 10, 3-(4,5-Difluoro-2-methoxyphenyl)-2-(4-fluorophenyl)thiazolidin-4-one] | – | < 10 | 6152 | 2 | –
COc1c(F)cc(F)cc1N1C(=O)CSC1c1ccc(F)cc1 (centres unmarked) [Example 11, 3-(3,5-Difluoro-2-methoxyphenyl)-2-(4-fluorophenyl)thiazolidin-4-one] | – | < 10 | – | – | –
COc1cc(C(=O)O)ccc1N1C(=O)CSC1c1ccc(F)cc1 (centres unmarked) [Example 12, 4-[2-(4-Fluoro-phenyl)-4-oxo-thiazolidin-3-yl]-3-methoxy-benzoic acid] | – | – | 12252 | 10.6 | –
CCOc1ccc(N2C(=O)CSC2c2ccc(F)cc2)cc1Cl (centres unmarked) [Example 20] | – | < 10 | – | – | –
N#Cc1ccc(N2C(=O)CSC2c2ccc(F)cc2)cc1 (centres unmarked) [Example 37] | – | < 10 | – | – | –
N#Cc1cc(F)c(N2C(=O)CSC2c2ccc(F)cc2)c(F)c1 (centres unmarked) [Example 43] | more than 5000 | – | 12926 | 11.2 | –
O=C(O)c1ccc(N2C(=O)CSC2c2ccc(F)cc2)c(Cl)c1 (centres unmarked) [Example 44] | – | < 10 | – | – | –
Cc1cc(C#N)ccc1N1C(=O)CSC1c1ccc(F)cc1 (centres unmarked) [Example 46] | – | < 10 | – | – | –
COc1ccc(N2C(=O)CSC2c2ccc(F)cc2)c(C)c1 (centres unmarked) [Example 47] | – | < 10 | – | – | –
COc1cc(C)c(N2C(=O)CSC2c2ccc(F)cc2)cc1OC (centres unmarked) [Example 52] | – | – | 7780 | 3.6 | –
Cc1cc(N(C)C)ccc1N1C(=O)CSC1c1ccc(F)cc1 (centres unmarked) [Example 53] | – | – | 6407 | 0.5 | –
Cc1ccc(C(=O)O)cc1N1C(=O)CSC1c1ccc(F)cc1 (centres unmarked) [Example 54] | – | – | 8906 | 3.3 | –
COC(=O)c1ccc(N2C(=O)CSC2c2ccc(F)cc2)c(C)c1 (centres unmarked) [Example 59] | – | – | 11534 | 2.6 | –
Cc1cc(C(=O)O)ccc1N1C(=O)CSC1c1cccc(F)c1 (centres unmarked) [Example 60] | – | – | 20700 | 1.1 | –
Cc1cc(C(=O)O)ccc1N1C(=O)CSC1c1ccc(F)c(F)c1 (centres unmarked) [Example 62] | more than 5000 | < 10 | 21586 | 1.6 | –
Cc1cc(C(=O)O)ccc1N1C(=O)CSC1c1cc(F)cc(F)c1 (centres unmarked) [Example 64] | more than 5000 | < 10 | 9368 | 6 | –
Cc1cc(C2SCC(=O)N2c2ccc(C(=O)O)cc2C)ccc1F (centres unmarked) [Example 68] | more than 5000 | < 10 | 7951 | 6.4 | –
Cc1cc(C(=O)O)ccc1N1C(=O)CSC1c1cccc(C(F)(F)F)c1 (centres unmarked) [Example 74] | – | < 10 | – | – | –
COc1ccc(C2SCC(=O)N2c2ccc(C(=O)O)cc2C)cc1 (centres unmarked) [Example 78] | more than 5000 | < 10 | 9368 | 6 | –

Molecule | AUC (CHO-K1/MOR/Gα15 cells) | EC50 (EC50, CHO-K1/MOR/Gα15 cells) [µM] | FLIPR Ca^2+ AUC | EC50 (read-out: FLIPR Ca^2+ EC50) [µM] | EC50 [1] [µM]
Cc1cc(C(=O)O)ccc1N1C(=O)CSC1c1ccc(Cl)cc1 (centres unmarked) [Example 84] | more than 5000 | < 10 | 5509 | 7.2 | –
CC(=O)c1ccc(C)c(N2C(=O)CSC2c2ccc(F)cc2)c1 (centres unmarked) [Example 90] | – | < 10 | – | – | –
Cc1ccc(C(F)(F)F)cc1N1C(=O)CSC1c1ccc(F)cc1 (centres unmarked) [Example 92] | – | < 10 | – | – | –
COC(=O)COc1ccc(N2C(=O)CSC2c2ccc(F)cc2)c(C)c1 (centres unmarked) [Example 93] | more than 5000 | < 10 | 11009 | 6.4 | –
COC(=O)Cc1ccc(N2C(=O)CSC2c2ccc(F)cc2)c(C)c1 (centres unmarked) [Example 96] | more than 5000 | < 10 | 9657 | 10 | –
Cc1cc(CC(=O)O)ccc1N1C(=O)CSC1c1ccc(F)cc1 (centres unmarked) [Example 101] | – | < 10 | – | – | –
Cc1ccc(N2C(=O)CSC2c2ccc(F)cc2)c(C)c1 (centres unmarked) [Example 102] | – | < 10 | – | – | –
Cc1c(F)cccc1N1C(=O)CSC1c1ccc(F)cc1 (centres unmarked) [Example 109] | – | – | 9614 | 2.6 | –
Cc1cc(F)ccc1N1C(=O)CSC1c1ccc(F)cc1 (centres unmarked) [Example 110] | – | – | 6308 | 3.8 | –
Cc1ccc(F)cc1N1C(=O)CSC1c1ccc(F)cc1 (centres unmarked) [Example 112] | – | < 10 | – | – | –
Cc1ccc(F)cc1N1C(=O)CSC1c1cccc(F)c1 (centres unmarked) [Example 113] | – | < 10 | – | – | –
CCc1ccc(C2SCC(=O)N2c2cc(F)ccc2C)cc1 (centres unmarked) [Example 117] | more than 5000 | – | 7880 | 13.5 | –
Cc1ccc(F)cc1N1C(=O)CSC1c1cc(F)cc(F)c1 (centres unmarked) [Example 122] | more than 5000 | – | 7010 | 3.6 | –
Cc1ccc(F)cc1N1C(=O)CSC1c1ccc(Cl)c(F)c1 (centres unmarked) [Example 123] | – | – | 4228 | 0.5 | –
Cc1ccc(Cl)cc1N1C(=O)CSC1c1ccc(F)cc1 (centres unmarked) [Example 147] | more than 5000 | < 10 | 11516 | 3.2 | –
Cc1ccc(Br)cc1N1C(=O)CSC1c1ccc(F)cc1 (centres unmarked) [Example 149] | – | < 10 | 4427 | 4.4 | –
Cc1cc(C(=N)NO)ccc1N1C(=O)CSC1c1ccc(F)cc1 (centres unmarked) [Example 151] | more than 5000 | < 10 | 10591 | 3.4 | –
CCOC(=O)c1ccc(N2C(=O)CSC2c2ccc(F)cc2)c(C)c1 (centres unmarked) [Example 152] | more than 5000 | – | 14743 | 6.3 | < 10
CCOC(=O)c1ccc(N2C(=O)CSC2c2ccc(F)cc2)c(CC)c1 (centres unmarked) [Example 156] | more than 5000 | < 10 | 11998 | 6.2 | –
C=Cc1cc(C(=O)O)ccc1N1C(=O)CSC1c1ccc(F)cc1 (centres unmarked) [Example 157] | more than 5000 | < 10 | 5903 | 10 | –
CCCS(=O)(=O)NC(=O)c1ccc(N2C(=O)CSC2c2ccc(F)cc2)c(C)c1 (centres unmarked) [Example 160] | more than 5000 | < 10 | 13549 | 4.3 | –
CCS(=O)(=O)NC(=O)c1ccc(N2C(=O)CSC2c2ccc(F)cc2)c(C)c1 (centres unmarked) [Example 162] | more than 5000 | < 10 | 13767 | 9.1 | –
